Measurements reported in US10195218B2, “Crystallization method and bioavailability” (GRUNENTHAL GMBH, priority 2016, dated 2019).
Read-outs that look alike come from different tables or passages of the source.

Key:
[1] = Rat PK study: plasma concentrations of zoledronic acid after IV, oral gavage or intraduodenal (ID) dosing, LC/MS/MS; format: in vivo, Sprague-Dawley Rats
Experimental: These studies were conducted on rats and dogs as they are suitable animal models for zoledronic acid. This can be attributed to the fact that both animals have historically been used in the safety evaluation and PK screening studies and are recommended by appropriate regulatory agencies. […] Pure zoledronic acid and zoledronic acid complexes prepared by the methods in this invention were delivered to the rats and dogs through IV or oral routes. Additional tests included ID administration in rats and administration of enteric coated capsules in dogs. All compounds delivered were well tolerated by the animals with no adverse events or physical abnormalities noticed. […] USA. Surgical catheters (jugular vein and intraduodenum) were implanted to the animals prior to the study. […] Surgical catheters (jugular vein) were implanted prior to the study. […] Zoledronic acid and its complex formulations were administered through IV, oral and ID. […] The dose of each rat was calculated on a per rat basis (not on an average weight of all the rats in the lot). • ii. Oral gavage administration: solid suspensions were administered. The dose of each rat was calculated on a per rat basis (not on an average weight of all the rats in the lot). […] Duodenal cannula administration: solid suspensions were administered. The dose of each rat was calculated on a per rat basis (not on an average weight of all the rats in the lot). […] Group I (IV administration). Group members, designated IV doses are listed below IV comparator group, was conducted to calculate MAT (mean absorption time) and ka (absorption rate constant) for the oral groups. Group II (oral gavage): Group designations and oral doses are listed below: Group III (ID administration): Group designations and oral doses are listed below: Group IV (oral gavage): Group designations and oral doses are listed below: […] Samples were thawed on the day of analysis and the amount of zoledronic acid in the samples was quantified by analyzed by LC/MS/MS method.

[2] = Aqueous solubility at room temperature; format: physicochemical; details: water
[3] = Dog PK study: serum concentrations of zoledronic acid after IV or oral (gelatin capsule, enteric or non-enteric coated, with or without excess coformer, micronized) dosing, LC/MS/MS; format: in vivo; details: beagle, Leg 1, IV 0.05 mg/kg, saline solution, time 0 hour (pre-dose), read-out: Average serum concentration of 5 dogs
Experimental: Surgical catheters (jugular vein and intraduodenum) were implanted to the animals prior to the study. Beagle dogs from Marshall Farms, N.Y., USA, weighing from (9-12 kg) were used in this study. Surgical catheters (jugular vein) were implanted prior to the study.
IV Administration: The dose volume of each dog was adjusted based upon the average weight of the dog. • ii.
Prior to dosing, all dogs received a 20 mL dose of citric acid (24 mg/mL in water) to lower the pH of their stomach. After dosing capsules or IV, all dogs received additional 6.25 mL citric acid solution (24 mg/mL in water) as a rinse.
Group A, (IV administration). Group members, designated IV doses are listed below:
Group B (oral administration): Group designations and oral doses are listed below:
Group C (oral administration): Group designations and oral doses are listed below:
Group D, (15 min IV infusion): Group members, designated IV doses are listed below:
Group E, (oral administration): Group members, designated IV doses are listed below:
Group F, (15 min IV infusion): Group members, designated IV doses are listed below: […]

[4] = cited from earlier work
[5] = cited from earlier work; remark: listed apart in the source
[6] = ID (duodenal cannula) 5 mg/kg zoledronic acid equivalent, PEG 400, time 8 hour
[7] = ID (duodenal cannula) 5 mg/kg zoledronic acid equivalent, PEG 400, time 24 hour
[8] = PO gavage 5 mg/kg zoledronic acid equivalent, PEG 400, time 24 hour (Table 1)
[9] = molar concentration of the complex

In the case of Zoledronic, L-lysine, and water complex, the “Average plasma concentration of 3 Rats” value ([1]; ID (duodenal cannula) 5 mg/kg zoledronic acid equivalent, PEG 400, time 0.25 hour) is reported as 91.21 ng/mL, the “Average plasma concentration of 3 Rats” value ([1]; ID (duodenal cannula) 5 mg/kg zoledronic acid equivalent, PEG 400, time 1 hour) is reported as 26.53 ng/mL and the “Average plasma concentration of 3 Rats” value ([1]; ID (duodenal cannula) 5 mg/kg zoledronic acid equivalent, PEG 400, time 4 hour) is reported as 0.74 ng/mL. For the same molecule, the “Average plasma concentration of 3 Rats” value [1, 6] was 0.00 ng/mL, the “Average plasma concentration of 3 Rats” value [1, 7] was 0.00 ng/mL and the “Average plasma concentration of 3 Rats” value ([1]; PO gavage 5 mg/kg zoledronic acid equivalent, PEG 400, time 0.25 hour (Table 1)) was 258.43 ng/mL. The “Average plasma concentration of 3 Rats” value ([1]; PO gavage 5 mg/kg zoledronic acid equivalent, PEG 400, time 0.5 hour (Table 1)) was 249.82 ng/mL, the “Average plasma concentration of 3 Rats” value ([1]; PO gavage 5 mg/kg zoledronic acid equivalent, PEG 400, time 1 hour (Table 1)) was 184.95 ng/mL and the “Average plasma concentration of 3 Rats” value ([1]; PO gavage 5 mg/kg zoledronic acid equivalent, PEG 400, time 4 hour (Table 1)) was 28.70 ng/mL. The “Average plasma concentration of 3 Rats” value ([1]; PO gavage 5 mg/kg zoledronic acid equivalent, PEG 400, time 8 hour (Table 1)) was 3.27 ng/mL and the “Average plasma concentration of 3 Rats” value [1, 8] was 0.00 ng/mL.

For `NCCCCC(N)C(=O)O.O.O.O=P(O)(O)C(O)(Cn1ccnc1)P(=O)(O)O` [ZA:L-Lysine dihydrate], the “Aqueous solubility, Conc.” value [2] was 8220 µg/mL and the “Aqueous solubility, mMol/L (complex)” value [2, 9] was 18.09 mmol/L.

For `O=P(O)(O)C(O)(Cn1ccnc1)P(=O)(O)O` [Zoledronic acid, (1-hydroxy-2-imidazol-1-yl-1-phosphono-ethyl)phosphonic acid], the concentration at 0 h [3] is given as 0 ng/mL, the oral bioavailability ([4]; according to FDA Summary Basis of Approval) is given as “approximately 1%” and the “gastric and intestinal irritation” value ([4]; in vivo) is given as “severe gastric and intestinal irritations”. The “solubility in 0.1 N HCl solution” value ([5]; 0.1 N HCl solution) was “sparingly soluble”, the “solubility in 0.1 N NaOH” value ([5]; 0.1 N NaOH) was “freely soluble” and the “solubility in various organic solvents” value ([5]; various organic solvents) was “practically insoluble”. For the same molecule, the solubility in water ([5]; water) was “sparingly soluble”.

With `NCCCCC(N)C(=O)O.O.O=P(O)(O)C(O)(Cn1ccnc1)P(=O)(O)O` [ZA:DL-Lysine monohydrate] the “Aqueous solubility, Conc.” value [2] was 13900 µg/mL and the “Aqueous solubility, mMol/L (complex)” value [2, 9] was 31.86 mmol/L.

For “Zoledronic, Nicotinamide, and Water Complex”, the “Average plasma concentration of 3 Rats” value [1, 6] was 0.00 ng/mL, the “Average plasma concentration of 3 Rats” value [1, 7] was 0.00 ng/mL and the “Average plasma concentration of 3 Rats” value [1, 8] was 0.00 ng/mL.

`O=P(O)(O)C(O)(Cn1ccnc1)P(=O)(O)O` [ZA monohydrate, Zoledronic acid monohydrate, reference compound] showed a solubility ([2]; molar concentration of the complex, read-out: Aqueous solubility, mMol/L (complex)) of 5.41 mmol/L and a solubility ([2]; read-out: Aqueous solubility, Conc.) of 1570 µg/mL.
